B1: -024: human monoclonal IgG1 anti-CD38 antibody, VL region SEQ ID No:22 and VH region SEQ ID No:27 (antibody, listed as Homo sapiens, V domains shown)
VH: EVQLVQSGAEVKKPGESLKISCKGSGYSFSNYWIGWVRQMPGKGLEWMGIIYPHDSDARYSPSFQGQVTFSADKSISTAYLQWSSLKASDTAMYYCARHVGWGSRYWYFDLWGRGTLVTVSS
VL: EIVLTQSPATLSLSPGERATLSCRASQSVSSYLAWYQQKPGQAPGLLIYDASNRASGIPARFSGSGSGTDFTLTISSLEPEDFAVYYCQQRSNWPLTFGGGTKVEIK

Legend:
PBMCs = assay: Induction of release of IFN-γ by PBMC; assay type: cell-based, human; details: 20 μg/ml antibody and 1 μg/ml OKT-3, 9 donors
Procedure: -003, -005 and -024 were tested in an assay as described in Ausiello et al., Tissue antigens 56, 538-547 (2000). Briefly, PBMCs were cultured at 1×10^6 cells/well in 48-well plates in the presence of 20 μg/ml of antibodies and 1 μg/ml OKT-3 (Sanquin, Amsterdam, The Netherlands) in 500 μl RPMI^++. After an O/N incubation at 37° C., supernatant was harvested and stored at −20° C. The IFN-γ concentration was assessed by ELISA (IFN-γ ELISA kit, U-CyTech Biosciences, Utrecht, The Netherlands) according to the manufacturer's instructions. Data are shown mean concentration in pg/ml (±SEM) from 9 donors.

Daudi-luc tumor cells = assay: In vivo SCID-luciferase experiments; parameters: species or system SCID mice
Excerpt: In this model tumor cells are transfected with firefly luciferase. Upon administration of luciferin (Molecular Probes, Leiden, The Netherlands) to the mice the labeled cells can be detected in vivo by bioluminescent imaging using a highly sensitive CCD camera, cf. Wetterwald et al., American Journal of Pathology 160(3), 1143-1153 (2002).
Daudi cells were transfected with gWIZ luciferase from Gene Therapy Systems (San Diego, CA) and cultured in RPMI with 10% FCS, Pen/Strep, Sodium Pyruvate and 1 μg/ml puromycin (Sigma). Cells were analysed for luciferase expression (expressed in RLU/1×10^5 cells) in a luminometer and for CD38 expression by FACS. 2.5×10^6 luciferase-transfected Daudi cells/mouse were injected i.v. into SCID mice. Mice were treated with -003, -005, isotype control antibody (HuMab-KLH) or rituximab (anti-CD20 antibody). Antibodies were injected intraperitoneally. Four treatment settings were used (see Table 4). In the preventive setting, antibody (100 μg/mouse) and cells were administered simultaneously. In therapeutic setting I, antibody (300 μg/mouse) was administered 7 days after administration of cells. In therapeutic setting II, antibody (10 μg/mouse) was administered 14 days after administration of cells. In therapeutic setting III, antibody (100 μg/mouse) was administered 7 days after administration of cells. For imaging, mice were anesthetized by i.p. injection of a mixture of ketamine/xylazine/atropine. Synthetic D-Luciferin (sodium salt, Molecular Probes) was given i.p. at a dose of 25 mg/ml. Mice were then placed in a light tight box and after 3 min, imaging was started using a VersArray 1300B liquid nitrogen cooled CCD detector (Roper Scientific). Photons emitted from the luciferase were counted over an exposure period of 5 min. Under illumination black and white images were made for reference. MetaVue software (Universal Imaging Corp) was used for data collection and image analysis. Statistical significance of differences between groups was established using one-way analysis of variance with a Newman-Keuls post test using GraphPad PRISM version 3.02 (Graphpad Software Inc).

HA-tagged CD38 = target: T1, HA-tagged CD38 (Homo sapiens, UniProt P28907); assay: Surface plasmon resonance (Biacore 3000); assay type: binding; details: 25° C., mean of 3 experiments±SD
T1 construct: The extracellular domain of human CD38 was amplified from plasmid pCIpuroCD38; made in house
Procedure: Binding of -003 and -005 to CD38 was tested using surface plasmon resonance. Briefly, purified antibodies were immobilized on a CM-5 sensor chip (Biacore, Uppsala, Sweden) via anime coupling. HA-tagged CD38 (see Example 3) was flowed over, and the binding of antigen to mAb was detected by a change in refractive index at the surface of the chip using a Biacore 3000 (Biacore).

[1] = system: tumor cells obtained from different MM patients; assay: Complement-dependent cytotoxicity of tumor cells from MM patients; assay type: cell-based, human; details: in words
[2] = system: luciferase-transfected Daudi cells; assay: Annexin-V apoptosis assay; assay type: cell-based; details: 5 μg/ml
Procedure: Apoptosis assay was carried out according to the manufacturer's instructions (Annexin-V Apoptosis kit, BD Biosciences, Alphen a.d. Rijn, Netherlands). In short, CD38 mAbs were added to 2.5×10^5 cells (luciferase-transfected Daudi cells, in 0.5 ml RPMI^++ in a 24-wells plate), in a concentration of 5 μg/ml -003 or -005 or an anti-CD20 antibodies alone or in the presence of cross-blocking rb-anti-hIgG (50 μg/ml).
After incubation (37° C., 5% CO2, 20 hr), cells were harvested carefully, and washed with Binding Buffer (1200 rpm, 4° C., 5 min, BD Biosciences). Pellet was resuspended in 100 μl Binding Buffer. Then, 5 μl Annexin-V-FITC (BD Biosciences) and 10 μl PI (BD Biosciences) was added to the suspension and incubated for 15 minutes at RT. 400 μl Binding Buffer was added and the samples were measured (PI readout in FL2). For analysis of apoptotic cells, all Annexin-V-positive cells were counted by flow cytometry using a FACScalibur flow cytometer with CellQuest pro software (BD Biosciences). At least 10,000 events were collected for analysis. This population includes both PI-positive as well as PI-negative cells.

[3] = system: EBV transformed chimpanzee B cells; assay: Binding to EBV transformed chimpanzee B cells by flow cytometry; details: FITC-labeled antibody
Procedure: After harvesting and counting, EBV transformed chimpanzee B cells (received from Biomedical Primate Research Centre, Department Immunobiology, Rijswijk, The Netherlands) were resuspended (1×10^6 cells/ml) in PBS-BSA (PBS supplemented with 0.1% BSA and 0.02% Na-azide). Then, cells were put in 96-well V-bottom plates (100 μl/well) and washed twice in PBS-BSA. Thereafter, 50 μl FITC-labeled -005 antibody solution in PBS-BSA was added to the cells (4° C., 30 min). Cells were washed three times and specific binding of -005 to EBV transformed chimpanzee B cells was detected by flow cytometry. FITC labeled HuMab-KLH (a human monoclonal antibody against KLH (keyhole limpet haemocyanin) generated by Genmab B.V., Utrecht, The Netherlands by use of the immunization protocols described elsewhere herein) was used as a control.

Molecule	release of IFN-γ (PBMCs)	inhibition of growth of tumor cells (Daudi-luc tumor cells; preventive setting, 100 μg/mouse, day 0, i.p.)	inhibition of growth of tumor cells (Daudi-luc tumor cells; therapeutic setting I, 300 μg/mouse, day 7, i.p.)	KA (HA-tagged CD38) [M⁻¹]	Kd (HA-tagged CD38) [nM]	ka (HA-tagged CD38) [M⁻¹ s⁻¹]	kd (HA-tagged CD38) [s⁻¹]	CDC-mediated lysis of MM patient tumor cells [1]	induction of apoptosis ([2]; after cross-linking with rb-anti-hIgG (50 μg/ml))	induction of apoptosis ([2]; without cross-linking)	binding to EBV transformed chimpanzee B cells [3]	inhibition of Daudi-luc tumor cell growth (Daudi-luc tumor cells; therapeutic setting III, 100 μg/mouse, day 7, i.p.)
-005: human monoclonal IgG1 anti-CD38 antibody, VL region SEQ ID No:12 and VH region SEQ ID No:17	does not induce release of detectable IFN-γ levels	inhibit growth of tumor cells	inhibit growth of tumor cells	1.7e+08 ± 3.68e+07	6.06	88800 ± 19500	0.000522 ± 1.16e-05	CDC-mediated lysis is observed	less able to induce apoptosis	do not induce apoptosis	dose dependent binding	–
B1	did not induce release of significant IFN-γ levels	–	–	–	–	–	–	induced lysis	–	–	–	clear inhibition

— US20240165226A1, “COMBINATION TREATMENT OF CD38-EXPRESSING TUMORS” (GENMAB A/S, priority 2006, published 2024)
